Source: PMC11956013, “Structure–Activity Relationships and Evaluation of 2-(Heteroaryl-cycloalkyl)-1H-indoles as Tauopathy Positron Emission Tomography Radiotracers” (Journal of Medicinal Chemistry, 2025)

How the values were obtained:
98 CNS protein targets = assay: Eurofins CNS SafetyScreen panel at 10 μM; type: binding; details: 10-μM concentration
human recombinant MAO-B = molecular target: T1, human recombinant MAO-B (Homo sapiens, UniProt P27338); assay: Eurofins IC50 determination at human recombinant MAO-B; type: binding
T1 construct: purchased Eurofins (contract assay)

5-HT2C (h) = molecular target: T2, 5-HT2C (h) (Homo sapiens, UniProt P28335); assay: Eurofins panel: 5-HT2C (h) (agonist radioligand); type: binding; details: 1.0E-05 M; 5-HT2C (h) (agonist radioligand)
T2 construct: purchased Eurofins (contract screening, CNS SafetyScreen panel)
T2 sequence (P28335 33-458): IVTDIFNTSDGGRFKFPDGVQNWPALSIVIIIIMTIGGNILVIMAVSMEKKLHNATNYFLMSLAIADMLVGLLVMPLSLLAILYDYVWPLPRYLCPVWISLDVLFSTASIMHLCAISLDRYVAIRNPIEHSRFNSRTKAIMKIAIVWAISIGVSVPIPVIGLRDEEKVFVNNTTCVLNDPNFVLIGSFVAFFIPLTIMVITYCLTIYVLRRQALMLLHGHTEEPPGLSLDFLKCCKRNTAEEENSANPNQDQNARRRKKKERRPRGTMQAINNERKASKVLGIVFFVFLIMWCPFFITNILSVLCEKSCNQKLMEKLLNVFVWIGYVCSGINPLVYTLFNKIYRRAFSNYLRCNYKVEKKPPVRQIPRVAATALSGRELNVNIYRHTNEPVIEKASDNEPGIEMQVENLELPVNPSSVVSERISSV

tyrosine hydroxylase = molecular target: T3, tyrosine hydroxylase (Rattus norvegicus, UniProt P04177); assay: Eurofins panel: tyrosine hydroxylase; type: biochemical; details: compound concentration 1.0E-05 M
T3 construct: purchased Eurofins (CNS SafetyScreen panel, contract assay)

ATPase (Na+/K+) = assay: Eurofins panel: ATPase (Na+/K+) enzymatic activity; type: biochemical; details: 1.0E-05 M
[1] = molecular target: T4, GABAB(B1b/B2) Human GABA B GPCR (Homo sapiens, UniProt Q9UBS5); assay: GABAB(B1b/B2) Human GABA B GPCR Mass Spectrometry Binding (Antagonist Ligand) Assay, Cerep, assay 4699
T4 construct: Eurofins (Cerep) assay 4699

Ca2+ channel (N) = type: binding
5-HT1A (h) = 5-HT1A (h) (Homo sapiens, UniProt P08908); details: 1.0E-05 M; 5-HT1A (h) (agonist radioligand)
[2] = molecular target: norepinephrine transporter (h) (Homo sapiens, UniProt P23975); details: compound concentration 1.0E-05 M
SKCa channel = details: compound concentration 1.0E-05 M
TNF-alpha (h) = details: compound concentration 1.0E-05 M
V1a (h) = V1a (h) (Homo sapiens, UniProt P37288); details: compound concentration 1.0E-05 M
B2 (h) = B2 (h) (Homo sapiens, UniProt P30411); details: 1.0E-05 M; B2 (h) (agonist radioligand)
beta1 (h) = beta1 (h) (Homo sapiens, UniProt P08588); details: 1.0E-05 M; beta1 (h) (agonist radioligand)
CYP1A2 = CYP1A2 (Homo sapiens, UniProt P05177); assay: in vitro; details: human liver microsomes, probe tacrine
CYP3A = CYP3A (Homo sapiens, UniProt P08684); assay: in vitro; details: human liver microsomes, probe midazolam
D1 (h) = D1 (h) (Homo sapiens, UniProt P21728); assay: biochemical
IRK (h) (InsR) = IRK (h) (InsR) (Homo sapiens, UniProt P06213); assay: biochemical
M2 (h) = M2 (h) (Homo sapiens, UniProt P08172); assay: biochemical
mu (MOP) (h) = mu (MOP) (h) (Homo sapiens, UniProt P35372); assay: Eurofins panel: mu (MOP) (h) (agonist radioligand); details: compound concentration 1.0E-05 M
beta2 (h) = beta2 (h) (Homo sapiens, UniProt P07550); assay: Eurofins panel: beta2 (h) (antagonist radioligand); details: 1.0E-05 M
M5 (h) = molecular target: T5, M5 (h) (Homo sapiens, UniProt P08912); assay: M5 (h) (antagonist radioligand), Eurofins assay 97
T5 sequence (P08912 1-532): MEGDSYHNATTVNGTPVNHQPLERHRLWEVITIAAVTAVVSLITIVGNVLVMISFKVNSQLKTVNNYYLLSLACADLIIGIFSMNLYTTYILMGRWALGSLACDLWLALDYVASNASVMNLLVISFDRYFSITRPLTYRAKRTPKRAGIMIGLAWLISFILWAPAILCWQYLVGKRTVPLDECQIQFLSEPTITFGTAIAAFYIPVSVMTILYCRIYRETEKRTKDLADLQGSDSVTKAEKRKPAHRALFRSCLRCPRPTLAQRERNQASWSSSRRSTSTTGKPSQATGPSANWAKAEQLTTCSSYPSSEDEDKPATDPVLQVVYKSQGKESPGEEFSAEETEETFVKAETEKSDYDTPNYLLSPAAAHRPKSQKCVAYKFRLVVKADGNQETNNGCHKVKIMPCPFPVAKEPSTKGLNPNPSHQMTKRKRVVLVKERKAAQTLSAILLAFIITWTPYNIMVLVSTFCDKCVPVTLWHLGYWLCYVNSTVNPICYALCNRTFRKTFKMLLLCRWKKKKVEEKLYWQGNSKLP

BZDp (TSPO) (h) = BZDp (TSPO) (h) (Homo sapiens, UniProt P30536); assay: Eurofins panel: BZDp (TSPO) (h) (antagonist radioligand); details: 1.0E-05 M; BZDp (TSPO) (h) (antagonist radioligand)
MT1 (ML1A) (h) = MT1 (ML1A) (h) (Homo sapiens, UniProt P48039); assay: MT1 (ML1A) (h) (agonist radioligand), Eurofins assay 1538
N neuronal alpha7 (h) = N neuronal alpha7 (h) (Homo sapiens, UniProt P36544); assay: Eurofins panel: N neuronal alpha7 (h) (antagonist radioligand); details: compound concentration 1.0E-05 M

Sequence of IRK (h) (InsR) (P06213 28-1382): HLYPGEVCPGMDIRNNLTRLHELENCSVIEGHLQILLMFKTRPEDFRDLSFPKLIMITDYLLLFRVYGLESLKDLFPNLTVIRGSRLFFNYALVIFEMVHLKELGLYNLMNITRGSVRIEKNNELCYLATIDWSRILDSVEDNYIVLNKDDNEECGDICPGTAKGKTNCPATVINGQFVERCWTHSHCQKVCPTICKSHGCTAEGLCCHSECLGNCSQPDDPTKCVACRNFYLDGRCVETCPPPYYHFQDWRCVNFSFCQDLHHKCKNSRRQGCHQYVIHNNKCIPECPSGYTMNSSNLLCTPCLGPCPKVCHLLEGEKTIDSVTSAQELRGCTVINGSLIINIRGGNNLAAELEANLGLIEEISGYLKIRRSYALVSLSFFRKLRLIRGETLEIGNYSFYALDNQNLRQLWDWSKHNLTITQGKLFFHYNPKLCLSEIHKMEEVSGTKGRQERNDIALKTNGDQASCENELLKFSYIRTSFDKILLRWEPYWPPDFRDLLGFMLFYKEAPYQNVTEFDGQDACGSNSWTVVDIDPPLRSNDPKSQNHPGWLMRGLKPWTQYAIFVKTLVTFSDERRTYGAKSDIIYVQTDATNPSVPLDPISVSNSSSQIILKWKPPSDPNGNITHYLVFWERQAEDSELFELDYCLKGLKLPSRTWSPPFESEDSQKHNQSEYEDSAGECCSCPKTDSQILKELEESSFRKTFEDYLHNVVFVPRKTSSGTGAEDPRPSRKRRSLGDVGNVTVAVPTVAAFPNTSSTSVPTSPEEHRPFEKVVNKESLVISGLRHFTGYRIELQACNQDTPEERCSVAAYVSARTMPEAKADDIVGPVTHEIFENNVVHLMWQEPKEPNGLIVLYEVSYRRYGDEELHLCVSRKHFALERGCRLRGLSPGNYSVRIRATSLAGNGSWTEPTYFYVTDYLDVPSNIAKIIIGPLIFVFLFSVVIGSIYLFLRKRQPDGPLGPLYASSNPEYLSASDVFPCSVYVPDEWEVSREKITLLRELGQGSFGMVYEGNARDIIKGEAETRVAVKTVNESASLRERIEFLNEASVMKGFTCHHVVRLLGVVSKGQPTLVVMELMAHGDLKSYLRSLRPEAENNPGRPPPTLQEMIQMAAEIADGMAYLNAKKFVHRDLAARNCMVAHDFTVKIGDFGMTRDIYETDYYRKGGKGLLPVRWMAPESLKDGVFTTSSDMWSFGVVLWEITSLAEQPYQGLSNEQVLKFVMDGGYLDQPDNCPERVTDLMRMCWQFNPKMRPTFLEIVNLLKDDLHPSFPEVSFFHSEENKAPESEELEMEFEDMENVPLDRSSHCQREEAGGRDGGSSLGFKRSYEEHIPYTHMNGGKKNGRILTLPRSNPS
Sequence of 5-HT1A (h) (P08908 whole entry): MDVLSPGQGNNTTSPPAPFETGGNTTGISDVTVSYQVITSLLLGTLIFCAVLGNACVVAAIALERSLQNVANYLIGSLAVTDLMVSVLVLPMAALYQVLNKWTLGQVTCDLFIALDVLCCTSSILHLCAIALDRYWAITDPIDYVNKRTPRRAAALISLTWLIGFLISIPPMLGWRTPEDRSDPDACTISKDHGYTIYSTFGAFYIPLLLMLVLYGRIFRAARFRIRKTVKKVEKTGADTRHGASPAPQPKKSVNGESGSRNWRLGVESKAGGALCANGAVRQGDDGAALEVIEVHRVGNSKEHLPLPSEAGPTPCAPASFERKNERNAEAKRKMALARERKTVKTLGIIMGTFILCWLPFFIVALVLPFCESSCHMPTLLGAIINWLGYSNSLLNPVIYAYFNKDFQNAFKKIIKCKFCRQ
Sequence of V1a (h) (P37288 whole entry): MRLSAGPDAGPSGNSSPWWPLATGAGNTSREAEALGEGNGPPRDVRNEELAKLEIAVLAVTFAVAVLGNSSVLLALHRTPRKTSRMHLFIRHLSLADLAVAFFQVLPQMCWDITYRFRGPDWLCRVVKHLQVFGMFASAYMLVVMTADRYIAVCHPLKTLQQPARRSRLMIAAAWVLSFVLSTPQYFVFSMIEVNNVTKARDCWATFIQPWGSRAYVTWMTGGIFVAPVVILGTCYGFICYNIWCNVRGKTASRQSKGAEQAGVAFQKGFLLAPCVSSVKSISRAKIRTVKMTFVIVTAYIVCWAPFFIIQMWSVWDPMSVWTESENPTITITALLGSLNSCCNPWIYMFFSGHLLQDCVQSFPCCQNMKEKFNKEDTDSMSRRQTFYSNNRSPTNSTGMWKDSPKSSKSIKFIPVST
Sequence of BZDp (TSPO) (h) (P30536 whole entry): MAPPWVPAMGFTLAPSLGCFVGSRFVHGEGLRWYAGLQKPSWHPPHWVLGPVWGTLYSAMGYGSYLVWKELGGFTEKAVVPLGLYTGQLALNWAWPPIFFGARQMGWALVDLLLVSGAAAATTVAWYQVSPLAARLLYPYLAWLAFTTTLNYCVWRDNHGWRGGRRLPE
Sequence of beta2 (h) (P07550 whole entry): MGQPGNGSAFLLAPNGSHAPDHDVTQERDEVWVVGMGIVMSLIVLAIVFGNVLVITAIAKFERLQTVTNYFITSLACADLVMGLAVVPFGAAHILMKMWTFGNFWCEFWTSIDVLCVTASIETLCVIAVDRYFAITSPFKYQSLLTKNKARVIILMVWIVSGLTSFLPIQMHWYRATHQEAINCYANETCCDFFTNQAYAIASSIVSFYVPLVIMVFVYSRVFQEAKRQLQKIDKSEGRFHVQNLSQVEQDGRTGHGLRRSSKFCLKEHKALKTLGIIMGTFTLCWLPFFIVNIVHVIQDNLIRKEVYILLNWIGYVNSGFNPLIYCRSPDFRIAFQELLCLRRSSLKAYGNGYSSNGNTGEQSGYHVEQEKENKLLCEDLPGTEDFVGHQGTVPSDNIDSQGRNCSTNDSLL
T1 sequence (P27338 whole entry): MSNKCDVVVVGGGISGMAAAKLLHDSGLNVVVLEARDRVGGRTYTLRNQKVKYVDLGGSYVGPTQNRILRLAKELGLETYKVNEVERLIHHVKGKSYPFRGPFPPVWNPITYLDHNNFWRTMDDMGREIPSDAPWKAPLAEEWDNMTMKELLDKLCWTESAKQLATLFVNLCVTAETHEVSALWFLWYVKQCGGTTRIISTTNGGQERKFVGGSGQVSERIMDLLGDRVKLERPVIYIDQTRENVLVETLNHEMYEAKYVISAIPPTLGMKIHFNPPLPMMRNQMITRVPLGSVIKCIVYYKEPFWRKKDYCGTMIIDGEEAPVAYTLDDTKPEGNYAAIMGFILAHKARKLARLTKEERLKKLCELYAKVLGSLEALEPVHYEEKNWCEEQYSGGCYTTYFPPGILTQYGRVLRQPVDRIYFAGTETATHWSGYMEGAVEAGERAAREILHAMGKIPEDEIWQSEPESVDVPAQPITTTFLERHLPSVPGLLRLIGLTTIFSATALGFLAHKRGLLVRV
Sequence of norepinephrine transporter (h) (P23975 whole entry): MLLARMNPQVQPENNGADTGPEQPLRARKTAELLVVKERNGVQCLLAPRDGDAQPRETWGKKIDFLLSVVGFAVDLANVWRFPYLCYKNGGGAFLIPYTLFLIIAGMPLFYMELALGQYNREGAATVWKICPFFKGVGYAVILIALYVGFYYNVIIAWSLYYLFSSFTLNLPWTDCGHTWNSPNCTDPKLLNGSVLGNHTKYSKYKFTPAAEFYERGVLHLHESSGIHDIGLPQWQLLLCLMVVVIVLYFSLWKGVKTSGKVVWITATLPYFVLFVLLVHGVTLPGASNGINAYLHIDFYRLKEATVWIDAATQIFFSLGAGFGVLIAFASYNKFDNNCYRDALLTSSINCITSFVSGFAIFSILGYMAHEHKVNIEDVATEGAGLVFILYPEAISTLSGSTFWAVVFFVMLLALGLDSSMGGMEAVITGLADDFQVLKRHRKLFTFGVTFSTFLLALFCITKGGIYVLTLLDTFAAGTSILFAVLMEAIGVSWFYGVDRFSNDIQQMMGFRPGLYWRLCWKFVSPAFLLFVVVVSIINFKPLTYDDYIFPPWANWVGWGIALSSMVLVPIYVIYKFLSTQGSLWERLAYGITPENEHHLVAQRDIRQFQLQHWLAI
Sequence of beta1 (h) (P08588 whole entry): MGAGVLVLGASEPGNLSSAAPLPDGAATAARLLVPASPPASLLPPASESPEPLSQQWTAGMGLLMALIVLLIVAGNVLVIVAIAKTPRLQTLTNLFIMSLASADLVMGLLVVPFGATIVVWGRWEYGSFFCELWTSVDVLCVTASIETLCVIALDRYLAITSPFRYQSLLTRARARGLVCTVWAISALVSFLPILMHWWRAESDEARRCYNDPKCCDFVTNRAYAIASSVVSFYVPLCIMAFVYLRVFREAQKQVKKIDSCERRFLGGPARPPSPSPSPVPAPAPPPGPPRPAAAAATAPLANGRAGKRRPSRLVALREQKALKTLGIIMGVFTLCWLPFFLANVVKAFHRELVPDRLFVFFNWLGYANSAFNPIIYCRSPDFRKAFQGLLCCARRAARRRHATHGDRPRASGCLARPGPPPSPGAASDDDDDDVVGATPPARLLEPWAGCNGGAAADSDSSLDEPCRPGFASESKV
Sequence of M2 (h) (P08172 whole entry): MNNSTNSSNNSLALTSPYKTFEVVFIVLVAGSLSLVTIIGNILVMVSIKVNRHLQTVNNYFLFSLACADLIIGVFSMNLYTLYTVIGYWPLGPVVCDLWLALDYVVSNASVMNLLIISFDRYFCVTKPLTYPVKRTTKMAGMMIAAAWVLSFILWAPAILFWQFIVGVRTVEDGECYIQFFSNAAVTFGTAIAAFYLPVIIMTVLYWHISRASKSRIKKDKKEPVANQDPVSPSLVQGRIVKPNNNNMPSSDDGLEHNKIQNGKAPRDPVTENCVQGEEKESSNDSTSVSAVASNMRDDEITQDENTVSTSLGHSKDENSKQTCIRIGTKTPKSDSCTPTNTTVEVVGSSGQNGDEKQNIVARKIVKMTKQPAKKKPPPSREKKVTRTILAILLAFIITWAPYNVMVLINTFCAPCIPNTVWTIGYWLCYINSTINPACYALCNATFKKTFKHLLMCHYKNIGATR

## Fc1nc(N2CCOCC2)ccc1-c1cc2ccccc2[nH]1 [Compound 75, 4-(6-Fluoro-5-(1H-indol-2-yl)pyridin-2-yl)morpholine]
98 CNS protein targets
  inhibition at 96 of 98 CNS targets: ≤ 25.3%
Human recombinant MAO-B
  IC50: 3 µM
5-HT2C (h)
  % Inhibition, Specific binding: 5.817%
Tyrosine hydroxylase
  % Inhibition, Enzymatic activity: -8.91E+00%
ATPase (Na+/K+)
  % Inhibition, Enzymatic activity: -2.26E+00%
[1]
  inhibition at 10 µM: 18.1%
Ca2+ channel (N)
  % Inhibition, Specific binding: -3.62E+00%
5-HT1A (h)
  % Inhibition, Specific binding: 11.4159%
[2]
  % Inhibition, Specific binding: -1.11E+01%
SKCa channel
  % Inhibition, Specific binding: 0.9001%
TNF-alpha (h)
  % Inhibition, Specific binding: 0.1083%
V1a (h)
  % Inhibition, Specific binding: -8.82E-01%
B2 (h)
  % Inhibition, Specific binding: -1.15E+01%
beta1 (h)
  % Inhibition, Specific binding: 12.2039%
CYP1A2
  inhibition at 10 µM: -10.4%
CYP3A
  inhibition at 10 µM: -2.45%
D1 (h)
  inhibition at 10 µM: -11.8%
IRK (h) (InsR)
  inhibition at 10 µM: -5.12%
M2 (h)
  inhibition at 10 µM: -12.8%
Mu (MOP) (h)
  % Inhibition, Specific binding: -1.17E+00%
beta2 (h)
  % Inhibition, Specific binding: 4.9424%
M5 (h)
  inhibition at 10 µM: 1.64%
BZDp (TSPO) (h)
  % Inhibition, Specific binding: 21.7657%
MT1 (ML1A) (h)
  inhibition at 10 µM: 13%
N neuronal alpha7 (h)
  % Inhibition, Specific binding: -7.00E+00%
